Literature values, collected in patent publication EP0884997B1, “COMPOSITIONS CONTAINING AN ANTIFUNGAL AND A SULFUR COMPOUND” (JANSSEN PHARMACEUTICA N.V., priority 1996, dated 1997).

Conditions: prior art medicated shampoos, dandruff patients

For CC(=O)N1CCN(c2ccc(OCC3COC(Cn4ccnc4)(c4ccc(Cl)cc4Cl)O3)cc2)CC1 (centres unmarked) [ketoconazole], the “number of patients not responding to particular medicated shampoo” value is listed as “up to 30%”.

For S=[Se]=S [selenium sulfide], the “number of patients not responding to particular medicated shampoo” value is given as “up to 40%”.
